Tests used:
[1] = Water solubility in sodium phosphate buffer; format: physicochemical; conditions: for fold more soluble in water than 3a: compared with 3a
human sEH = molecular target: T1, human sEH (Homo sapiens, UniProt P34913); assay: sEH inhibition, kinetic fluorescent assay; format: biochemical
T1 sequence (P34913 1-555): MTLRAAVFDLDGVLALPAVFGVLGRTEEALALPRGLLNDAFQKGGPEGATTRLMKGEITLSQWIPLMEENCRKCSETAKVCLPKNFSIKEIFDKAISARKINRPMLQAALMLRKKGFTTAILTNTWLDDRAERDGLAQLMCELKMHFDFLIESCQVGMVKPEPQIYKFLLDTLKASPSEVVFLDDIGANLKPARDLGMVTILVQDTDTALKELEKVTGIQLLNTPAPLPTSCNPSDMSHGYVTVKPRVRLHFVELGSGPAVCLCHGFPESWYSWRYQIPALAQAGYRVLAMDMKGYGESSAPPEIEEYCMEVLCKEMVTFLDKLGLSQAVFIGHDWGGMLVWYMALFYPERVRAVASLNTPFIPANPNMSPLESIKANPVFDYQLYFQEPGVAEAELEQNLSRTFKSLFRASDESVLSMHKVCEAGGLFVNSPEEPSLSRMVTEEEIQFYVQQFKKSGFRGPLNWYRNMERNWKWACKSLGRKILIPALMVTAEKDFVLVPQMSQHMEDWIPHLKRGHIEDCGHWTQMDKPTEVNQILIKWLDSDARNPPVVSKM

[2] = compared with 1a, sodium phosphate buffer pH 7.4, 0.1 M, 1% DMSO

## CC12CC3CC(C)(C1)CC(NC(=S)NCc1ccccc1)(C3)C2 [1d]
[1]; [2]
  fold decrease in water solubility vs. 1a: 4 fold

## S=C(NCCNC(=S)NC12CC3CC(CC(C3)C1)C2)NC12CC3CC(CC(C3)C1)C2 [6a]
Human sEH; compared with the other dithioureas of series 6
  fold less potent than the rest of thioureas in this series: 10–137 fold

## S=C(NC12CC3CC(CC(C3)C1)C2)NC12CC3CC(CC(C3)C1)C2 [3a, di(adamantan-1yl)thiourea]
[1]; compared with corresponding urea, urea data ref 17 for 3a
  fold more water soluble than urea of corresponding structure: 4.7 fold

## S=C(Nc1ccccc1)NC1C2CC3CC(C2)CC1C3 (stereo not drawn) [2a]
Human sEH; compared with urea analog
  fold less potent than its urea analog: 13 fold

## S=C(NC1C2CC3CC(C2)CC1C3)NC1C2CC3CC(C2)CC1C3 (stereo not drawn) [compound 5]
[1]
  fold more soluble in water than 3a: 1.5 fold

## CC12CC3CC(C)(C1)CC(NC(=S)Nc1ccc(F)cc1)(C3)C2 [1n]
[1]; [2]
  fold more soluble in water vs. 1a: 4 fold

## S=C(Nc1ccc(C23CC4CC(CC(C4)C2)C3)cc1)Nc1ccc(C23CC4CC(CC(C4)C2)C3)cc1 [3j]
[1]
  fold more soluble in water than 3a: 3 fold
Human sEH; compared with 3a
  fold decrease in inhibition potency vs. 3a: 1367 fold

## CC12CC3CC(C)(C1)CC(NC(=S)Nc1ccccc1)(C3)C2 [1a]
[1]; sodium phosphate buffer pH 7.4, 0.1 M, 1% DMSO
  water solubility (in words): poorly soluble in water
Human sEH; compared with 1b
  fold more potent than 1b: 2 fold

## S=C(NCc1ccccc1)NC1C2CC3CC(C2)CC1C3 (stereo not drawn) [2b]
Human sEH; compared with 2a
  fold increase of inhibition potency vs. 2a: 6.7 fold

## S=C(NCCc1ccccc1)NC1C2CC3CC(C2)CC1C3 (stereo not drawn) [2c]
Human sEH; compared with 2b
  fold increase of inhibition potency vs. 2b: 4 fold

## CCC(CC12CC3CC(CC(C3)C1)C2)NC(=S)Nc1ccccc1 (stereo not drawn) [1c]
Human sEH; compared with 1a
  fold less potent than 1a: 25 fold

## S=C(NC1C2CC3CC(C2)CC1C3)NC12CC3CC(CC(C3)C1)C2 (stereo not drawn) [4a]
[1]
  fold more soluble in water than 3a: 1.8 fold

## S=C(NCCCCCCCCCCNC(=S)NC12CC3CC(CC(C3)C1)C2)NC12CC3CC(CC(C3)C1)C2 [6h]
[1]; compared with 6a (1,2-ethylene spacer)
  fold difference in water solubility vs. 6a (decrease): 3 fold
